According to patent US20140045823A1 (Neurocrine Biosciences, Inc., priority 2012, published 2014):
pEC50: −log10 of the molar value.

Target: T1, human GPR119 (Homo sapiens, UniProt Q8TDV5)
T1 construct: expression vector for human GPR119 cDNA (Acc. No. NP_848566); expressed in transfected cells; Min-6/hGPR119
T1 sequence (Q8TDV5 1-335): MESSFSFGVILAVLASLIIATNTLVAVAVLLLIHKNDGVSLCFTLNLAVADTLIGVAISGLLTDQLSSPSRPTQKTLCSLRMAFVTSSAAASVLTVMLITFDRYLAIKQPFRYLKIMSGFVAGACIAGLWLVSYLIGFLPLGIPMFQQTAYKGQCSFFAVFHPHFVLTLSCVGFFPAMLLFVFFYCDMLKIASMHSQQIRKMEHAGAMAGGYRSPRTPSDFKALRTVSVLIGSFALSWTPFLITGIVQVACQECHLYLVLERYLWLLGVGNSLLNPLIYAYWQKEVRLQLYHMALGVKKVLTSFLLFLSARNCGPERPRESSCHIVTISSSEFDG
Test: AlphaScreen cAMP assay in MIN6 cells stably transfected with human GPR119
Format: cell-based
Details: Min-6/hGPR119 cells, 45 min at room temperature
Outline: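 MIN6 cells stably expressing human GPR119, seeded 10000/well and grown 24 h, were exposed to compound in pH 7.4 buffer with 0.5 mM IBMX, 0.1% BSA and 1% DMSO for 45 min at room temperature. Intracellular cAMP then measured by AlphaScreen.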

Row | SMILES | pEC50
1 | COC(C)CN(C)C(=O)c1ccc(-c2ncc(C(=O)N(C3CC3)C3CCN(C(=O)OC(C)(C)C)CC3)cn2)cc1 (centres unmarked) [Example 173, 4-[Cyclopropyl-(2-{4-[(2-methoxy-propyl)-methyl-carbamoyl]-phenyl}-pyrimidine-5-carbonyl)-amino]-piperidine-1-carboxylic acid tert-butyl ester] | 6.63
2 | COc1ccc(NC(=O)c2ccc(-c3ncc(C(=O)N(C4CC4)C4CCN(C(=O)OC(C)(C)C)CC4)cn3)cc2)cn1 [Example 174, 4-(Cyclopropyl-{2-[4-(6-methoxy-pyridin-3-ylcarbamoyl)-phenyl]-pyrimidine-5-carbonyl}-amino)-piperidine-1-carboxylic acid tert-butyl ester] | 6.77
3 | CCOCCNC(=O)c1ccc(-c2ncc(C(=O)N(C3CC3)C3CCN(C(=O)OC(C)(C)C)CC3)cn2)cc1 [Example 175, 4-(Cyclopropyl-{2-[4-(2-ethoxy-ethylcarbamoyl)-phenyl]-pyrimidine-5-carbonyl}-amino)-piperidine-1-carboxylic acid tert-butyl ester] | 6.78
4 | CC(C)(C)OC(=O)N1CCC(N(C(=O)c2cnc(-c3ccc(C(=O)Nc4ccc(CO)cc4)cc3)nc2)C2CC2)CC1 [Example 176, 4-(Cyclopropyl-{2-[4-(4-hydroxymethyl-phenylcarbamoyl)-phenyl]-pyrimidine-5-carbonyl}-amino)-piperidine-1-carboxylic acid tert-butyl ester] | 6.46
5 | CN(CCC#N)C(=O)c1ccc(-c2ncc(C(=O)N(C3CC3)C3CCN(C(=O)OC(C)(C)C)CC3)cn2)cc1 [Example 177, 4-[(2-{4-[(2-Cyano-ethyl)-methyl-carbamoyl]-phenyl}-pyrimidine-5-carbonyl)-cyclopropyl-amino]-piperidine-1-carboxylic acid tert-butyl ester] | 6.34
6 | CC(C)(C)OC(=O)N1CCC(N(C(=O)c2cnc(-c3ccc(C(=O)N4CCCOCC4)cc3)nc2)C2CC2)CC1 [Example 178, 4-(Cyclopropyl-{2-[4-([1,4]oxazepane-4-carbonyl)-phenyl]-pyrimidine-5-carbonyl}-amino)-piperidine-1-carboxylic acid tert-butyl ester] | 6.63
7 | CO[C@@H]1CCN(C(=O)c2ccc(-c3ncc(C(=O)N(C4CC4)C4CCN(C(=O)OC(C)(C)C)CC4)cn3)cc2)C1 [Example 179, 4-(Cyclopropyl-{2-[4-(3-methoxy-pyrrolidine-1-carbonyl)-phenyl]-pyrimidine-5-carbonyl}-amino)-piperidine-1-carboxylic acid tert-butyl ester] | 6.47
8 | CC(C)(C)OC(=O)N1CCC(N(C(=O)c2cnc(-c3ccc(CC(=O)Nc4ccccc4)cc3)nc2)C2CC2)CC1 [Example 180, 4-{Cyclopropyl-[2-(4-phenylcarbamoylmethyl-phenyl)-pyrimidine-5-carbonyl]-amino}-piperidine-1-carboxylic acid tert-butyl ester] | 6.54
9 | COC1CCN(C(=O)c2ccc(-c3ncc(C(=O)N(C4CC4)C4CCN(C(=O)OC(C)(C)C)CC4)cn3)cc2)CC1 [Example 181, 4-(Cyclopropyl-{2-[4-(4-methoxy-piperidine-1-carbonyl)-phenyl]-pyrimidine-5-carbonyl}-amino)-piperidine-1-carboxylic acid tert-butyl ester] | 6.69
10 | COCC1CCCCN1C(=O)c1ccc(-c2ncc(C(=O)N(C3CC3)C3CCN(C(=O)OC(C)(C)C)CC3)cn2)cc1 (centres unmarked) [Example 182, 4-(Cyclopropyl-{2-[4-(2-methoxymethyl-piperidine-1-carbonyl)-phenyl]-pyrimidine-5-carbonyl}-amino)-piperidine-1-carboxylic acid tert-butyl ester] | 6.50
11 | CC(C)(C)OC(=O)N1CCC(N(C(=O)c2cnc(-c3ccc(C(=O)Nc4ccccc4)cc3)nc2)C2CC2)CC1 [Example 183, 4-{Cyclopropyl-[2-(4-phenylcarbamoyl-phenyl)-pyrimidine-5-carbonyl]-amino}-piperidine-1-carboxylic acid tert-butyl ester] | 7.20
12 | CC(C)(C)OC(=O)N1CCC(N(C(=O)c2cnc(-c3ccc(CC(=O)N4CC(F)(F)C4)cc3)nc2)C2CC2)CC1 [Example 184, 4-[Cyclopropyl-(2-{4-[2-(3,3-difluoro-azetidin-1-yl)-2-oxo-ethyl]-phenyl}-pyrimidine-5-carbonyl)-amino]-piperidine-1-carboxylic acid tert-butyl ester] | 6.83
13 | COCc1sc(NC(=O)c2ccc(-c3ncc(C(=O)N(C4CC4)C4CCN(C(=O)OC(C)(C)C)CC4)cn3)cc2)nc1C [Example 185, 4-(Cyclopropyl-{2-[4-(5-methoxymethyl-4-methyl-thiazol-2-ylcarbamoyl)-phenyl]-pyrimidine-5-carbonyl}-amino)-piperidine-1-carboxylic acid tert-butyl ester] | 6.41
14 | CN(CC1(C)COC1)C(=O)Cc1ccc(-c2ncc(C(=O)N(C3CC3)C3CCN(C(=O)OC(C)(C)C)CC3)cn2)cc1 [Example 186, 4-{Cyclopropyl-[2-(4-{[methyl-(3-methyl-oxetan-3-ylmethyl)-carbamoyl]-methyl}-phenyl)-pyrimidine-5-carbonyl]-amino}-piperidine-1-carboxylic acid tert-butyl ester] | 6.21
15 | CC(C)(C)OC(=O)N1CCC(N(C(=O)c2cnc(-c3ccc(C(=O)N4CC(F)(F)C4)cc3)nc2)C2CC2)CC1 [Example 187, 4-(Cyclopropyl-{2-[4-(3,3-difluoro-azetidine-1-carbonyl)-phenyl]-pyrimidine-5-carbonyl}-amino)-piperidine-1-carboxylic acid tert-butyl ester] | 6.91
16 | COc1ccc(NC(=O)Cc2ccc(-c3ncc(C(=O)N(C4CC4)C4CCN(C(=O)OC(C)(C)C)CC4)cn3)cc2)c(OC)c1 [Example 188, 4-[Cyclopropyl-(2-{4-[(2,4-dimethoxy-phenylcarbamoyl)-methyl]-phenyl}-pyrimidine-5-carbonyl)-amino]-piperidine-1-carboxylic acid tert-butyl ester] | 6.51
17 | CC(C)(C)OC(=O)N1CCC(N(C(=O)c2cnc(-c3ccc(CC(=O)NC[C@H]4CCCC[C@H]4O)cc3)nc2)C2CC2)CC1 [Example 189] | 6.36
18 | CC(C)(C)OC(=O)N1CCC(N(C(=O)c2cnc(-c3ccc(C(=O)N4CCCC(O)C4)cc3)nc2)C2CC2)CC1 (centres unmarked) [Example 190, 4-(Cyclopropyl-{2-[4-(3-hydroxy-piperidine-1-carbonyl)-phenyl]-pyrimidine-5-carbonyl}-amino)-piperidine-1-carboxylic acid tert-buyl ester] | 6.09
19 | CC(C)(C)OC(=O)N1CCC(N(C(=O)c2cnc(-c3ccc(CC(=O)NCCOC(F)(F)F)cc3)nc2)C2CC2)CC1 [Example 191, 4-[Cyclopropyl-(2-{4-[(2-trifluoromethoxy-ethylcarbamoyl)-methyl]-phenyl}-pyrimidine-5-carbonyl)-amino]-piperidine-1-carboxylic acid tert-butyl ester] | 6.38
20 | CC(C)(C)OC(=O)N1CCC(N(C(=O)c2cnc(-c3ccc(CC(=O)N4CCCOCC4)cc3)nc2)C2CC2)CC1 [Example 192, 4-(Cyclopropyl-{2-[4-(2-[1,4]oxazepan-4-yl-2-oxo-ethyl)-phenyl]-pyrimidine-5-carbonyl}-amino)-piperidine-1-carboxylic acid tert-butyl ester] | 6.38
